Reference: article PMC8286840, “Identifying SARS-CoV-2 antiviral compounds by screening for small molecule inhibitors of Nsp3 papain-like protease” (Biochemical Journal, 2021)
pEC50, pIC50: −log10 of the molar value. “Also recorded” adds a separate entry of the source. Where two headings read alike, the source gives them in different places.

Assays:
[1] = biological target: SARS-CoV-2 PLpro (nsp3 1564–1878) (Severe acute respiratory syndrome coronavirus 2, UniProt P0DTD1); experiment: biochemical; assay type: biochemical; details: for pIC50: fluorescent-based assay; for Z score: screen hits, Table 1; for inhibition at 1.25 µM / slope value (of slope value/control) 1.25 µM / inhibition at 3.75 µM / slope value (of slope value/control) 3.75 µM: screen; for inhibition at 1.25 µM / slope value (of slope value/control) 1.25 µM: 1.25 µM compound; for inhibition at 1.25 µM / inhibition at 3.75 µM: 1.75 µM enzyme, 20 µM substrate; for inhibition at 1.25 µM: read-out: Inhibition (%) 1.25 µM; for slope value (of slope value/control) 1.25 µM / slope value (of slope value/control) 3.75 µM: number after the slash is the control without compound; for inhibition at 3.75 µM / slope value (of slope value/control) 3.75 µM: 3.75 µM compound; for inhibition at 3.75 µM: read-out: Inhibition (%) 3.75 µM
[2] = biological target: T1, SARS-CoV-2 PLpro (Severe acute respiratory syndrome coronavirus 2, UniProt P0DTD1); assay type: biochemical; details: 3.75 µM and 10 µM compound, 0.5 µM enzyme, 5 h RT
[3] = biological target: 3CLpro (nsp5) (Severe acute respiratory syndrome coronavirus 2, UniProt P0DTD1); assay type: biochemical, SARS-CoV-2
[4] = biological target: T1, SARS-CoV-2 PLpro; assay type: biochemical; details: 10 µM inhibitor, 50 nM PLpro, 1 µM substrate, 1 h 25°C
[5] = biological target: T1, SARS-CoV-2 PLpro; assay type: biochemical; details: 10 µM inhibitor, 50 nM PLpro, 1 µM substrate, 1 h 25°C; remark: listed apart in the source
[6] = test system: SARS-CoV-2; experiment: microbe, parasite or virus in culture; assay type: cell-based
[7] = test system: PLpro from SARS-CoV-1; details: cited from earlier work
[8] = test system: VERO E6 cells; experiment: Cytotoxicity in the cell culture-based assay
[9] = test system: VERO E6 cells
[10] = test system: SARS-CoV-1/-2 PLpro; details: non-covalent inhibitor; cited from earlier work
[11] = Severe acute respiratory syndrome coronavirus 2, Vero C1008, VERO E6 cells, compound alone, read-out: EC50 viral proliferation

In the case of `Cc1cccc2c3c(ccc12)C1=C(C(=O)C3=O)[C@@H](C)CO1` [Dihydrotanshinone I], the pIC50 [1] was 6.23, the pIC50 ([1]; listed as dihydrotanshione I) was 6.23 and the Z score [1] was −4.52. For the same molecule, the inhibition at 1.25 µM [1] was 0%, the “slope value (of slope value/control) 1.25 µM” value [1] was 449 and the inhibition at 3.75 µM [1] was 33%. The “slope value (of slope value/control) 3.75 µM” value [1] was 329, the “Inhibition of PLpro cleavage of the substrate (gel-based)” value [2] was “show inhibition; also recorded: strongly inhibited” and the “Inhibition of 3CLpro activity (gel-based)” value ([3]; 3 and 10 µM compound) was “did not inhibit”. For the same molecule, the “Inhibition of K48-linked Ub3 cleavage (DUB activity)” value [4] was “potent inhibition; also recorded: inhibited strongly”, the “Inhibition of pro-ISG15 cleavage (deISGylating activity)” value [5] was “potent inhibition” and the pEC50 [6, 11] was 5.10. The pEC50 ([6]; Severe acute respiratory syndrome coronavirus 2, Vero C1008, VERO E6 cells, compound plus 0.5 µM remdesivir, read-out: EC50 viral proliferation with remdesivir) was 5.27, the pEC50 ([6]; VERO E6 cells, compound alone, read-out: EC50 viral proliferation) was 5.09 and the “Inhibition of SARS-CoV-1 PLpro” value [7] was “inhibit”. The Cytotoxicity [8] was “did not exhibit much cytotoxicity”.
In the case of `Cc1ccc(N)cc1C(=O)N[C@H](C)c1cccc2ccccc12` [GRL-0617], the pEC50 ([6]; read-out: EC50 viral proliferation) was 4.49, the pEC50 ([6]; read-out: EC50 viral proliferation with remdesivir) was 4.49 and the Cytotoxicity [9] was “some cell toxicity at higher concentrations”. For the same molecule, the “Effectiveness against SARS-CoV-1/-2 PLpro” value [10] was “effective”.
In the case of `CC1(C)CCC2=C(O1)c1ccccc1C(=O)C2=O` [beta-Lapachone], the pIC50 [1] was 6.21, the Z score [1] was −4.66 and the inhibition at 1.25 µM [1] was 7%. The “slope value (of slope value/control) 1.25 µM” value [1] was 420, the inhibition at 3.75 µM [1] was 34% and the “slope value (of slope value/control) 3.75 µM” value [1] was 322. For the same molecule, the “Inhibition of PLpro cleavage of the substrate (gel-based)” value [2] was “show inhibition; also recorded: strongly inhibited”, the “Inhibition of 3CLpro activity (gel-based)” value [3] was “did not inhibit” and the “Inhibition of K48-linked Ub3 cleavage (DUB activity)” value [4] was “potent inhibition; also recorded: inhibited strongly”. For the same molecule, the “Inhibition of pro-ISG15 cleavage (deISGylating activity)” value [5] was “potent inhibition”, the pEC50 [6, 11] was 5.36 and the Cytotoxicity [8] was “cytotoxic in the low micromolar range”.
